Measurements published in US10294212B2 (CURADEV PHARMA PRIVATE LTD., priority 2013, dated 2019).
pIC50: −log10 of the molar value. Structures can show the parent of a compound that is named as a salt.

How the values were obtained:
[1] = biological target: Human TDO (hTDO)-transfected CHO-K1 cells (Homo sapiens (Human), UniProt P48775); assay: CHO-K1 cell based TDO assay; settings: hTDO cellular assay
How it was run: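 Stably hTDO-expressing CHO-K1 cells were exposed to compounds (typically 31 μM to 10 nM) in HBSS with 80 μM L-tryptophan for 2 h. TCA-treated supernatant was heated at 65° C for 15 min to convert N-formylkynurenine, then kynurenine was quantified by LC/MS/MS. IC50 came from percent inhibition versus DMSO control.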

IDO1 in HeLa cells = IDO1 in HeLa cells (Homo sapiens (Human), UniProt P14902); assay: HeLa cell based IDO1 assay (IFNγ-induced, KYN in supernatant)
IDO1 in HeLa cells, sequence (P14902 whole entry): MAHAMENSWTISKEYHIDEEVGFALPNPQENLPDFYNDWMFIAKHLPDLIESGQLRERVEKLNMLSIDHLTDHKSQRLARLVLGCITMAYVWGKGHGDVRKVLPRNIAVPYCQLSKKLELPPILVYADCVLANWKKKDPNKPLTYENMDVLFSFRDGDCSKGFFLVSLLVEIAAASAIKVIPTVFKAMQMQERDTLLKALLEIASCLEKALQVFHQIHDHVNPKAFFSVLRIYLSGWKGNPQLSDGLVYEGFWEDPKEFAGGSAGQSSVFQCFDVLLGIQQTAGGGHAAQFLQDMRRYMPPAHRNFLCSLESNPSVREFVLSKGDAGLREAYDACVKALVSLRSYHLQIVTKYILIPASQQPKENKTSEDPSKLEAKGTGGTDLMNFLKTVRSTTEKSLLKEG
How it was run: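 HeLa cells were induced overnight with IFNγ (50 ng/mL), washed, then exposed to compound (typically 10 μM–1 nM) in HBSS with 80 μM L-tryptophan. Supernatant was TCA-treated at 65 °C for 15 min to convert N-formylkynurenine, and KYN was measured by HPLC-UV at 360 nm. IC50 came from nonlinear regression against a 1% DMSO control.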

[2] = biological target: Human indoleamine 2,3-dioxygenase1 (hIDO1) (Homo sapiens (Human), UniProt P14902); assay: In-vitro IDO1 enzyme assay (conversion of L-tryptophan to KYN); format: biochemical; settings: read-out: IC50 (IDO1) Enz
Human indoleamine 2,3-dioxygenase1 (hIDO1), sequence (P14902 whole entry): as above
How it was run: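 His-tagged hIDO1 (10 nM, E. coli-expressed) incubated with 30 μM L-tryptophan, 20 mM ascorbate, 10 μM methylene blue and 100 μg/mL catalase in 50 mM potassium phosphate pH 6.5, 30 min at 37 °C. TCA stop, then 65 °C hydrolysis; KYN measured by HPLC-UV at 360 nm or LC/MS/MS. IC50 by nonlinear regression versus 1% DMSO control.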

CT-26 tumor cells = assay: Antitumor activity in syngeneic CT26/Balb/C tumor model; format: in vivo, Balb/c mice; settings: 60 mg/kg oral BID, vs control animals
Description: Tumor volume reduction by the test compounds was evaluated in a syngeneic CT26/Balb/C tumor model as described below. Balb/c mice were purchased from Vivo Bio Tech, Hyderabad, India, and housed in sterile conditions using an individually ventilated caging system manufactured by Citizen Industries Limited, Ahmedabad, India. Mice were quarantined for at least 7 days before experimentation.
Mouse colorectal tumor forming cells, CT-26 cells (ATCC, USA), were cultured in DMEM and 10% FBS medium supplemented with lx non-essential amino acid (HiMedia) in an incubator maintained at 37QC with 95% humidity and 5% CO2. One million (1×10^6) live syngeneic CT-26 cells suspended in 0.2 ml of […] were injected subcutaneously in the right flank of each Balb/c mouse (age 6-8 weeks, weight: about 18-20 g) on day 1 under anesthesia. Eight to ten mice were used per experimental group. Subcutaneous cells formed localized tumors. Animals were visually inspected twice a day. Tumor measurements were initiated 7 days post injection using Vernier calipers. Tumor sizes at day 7 ranged typically from 80-150 mm^3. Tumor dimensions were subsequently measured every 3 to 4 days and tumor volume was determined. Assuming tumors to be ellipsoid, tumor volume was calculated using the formula: V=(D×d×d)/2
Where D is longest diameter in mm, and d is shortest diameter in mm.
When the average tumor volume in the mice reached 100-120 mm^3, tumor bearing mice were randomized for treatment with either test compound or vehicle alone. Test compounds were formulated generally in normal saline comprising Polyethylene Glycol (PEG400), Propylene glycol (PG) and Dimethyl Acetamide (DACM) at pH 4.5-5.0 and dosed orally at ranges 40-75 mg/kg (dose volume—5 mL/kg) twice a day. Solutions of the compounds were prepared immediately before dosing the animals. In general, tumor volume was measured at various times post-dosing from day 1 to day 34.
A non-limiting example is provided. Tumor bearing mice were dosed orally twice a day at 40 mg/kg body weight with either vehicle control or test compound 2 formulated in 30% Polyethylene Glycol (PEG-400), 20% Propylene glycol (PG) in normal saline. Tumors were measured and tumor volumes were determined at 1, 4, 6, 9, 11, and 14 days after the first dose as described above. Animals were sacrificed on day 14. Tumor and blood samples were harvested for further analysis. Just prior to animal sacrifice, blood was drawn retro-orbitally into a tube containing 0.2% EDTA for plasma collection. The harvested tumors were weighed and snap frozen in liquid nitrogen immediately. Plasma KYN concentrations are measured for pharmacokinetic analysis using LC/MS/MS using an API4000 mass spectrometer (Applied Biosystems) coupled to a Shimadzu Prominence LC system fitted with a C18 column.

Human TDO (hTDO)-transfected CHO-K1 cells, sequence (P48775 whole entry): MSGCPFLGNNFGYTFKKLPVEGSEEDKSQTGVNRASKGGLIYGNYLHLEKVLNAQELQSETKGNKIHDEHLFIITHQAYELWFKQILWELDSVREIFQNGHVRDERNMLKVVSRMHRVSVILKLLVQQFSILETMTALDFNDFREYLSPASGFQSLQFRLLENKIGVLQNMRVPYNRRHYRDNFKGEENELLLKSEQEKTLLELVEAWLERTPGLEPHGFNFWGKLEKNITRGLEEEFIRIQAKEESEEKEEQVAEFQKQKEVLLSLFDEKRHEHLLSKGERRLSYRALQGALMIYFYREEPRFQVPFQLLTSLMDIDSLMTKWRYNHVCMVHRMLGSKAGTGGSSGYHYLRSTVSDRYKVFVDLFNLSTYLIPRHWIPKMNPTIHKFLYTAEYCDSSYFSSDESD

| pIC50 [1] | pIC50 (IDO1 in HeLa cells) | pIC50 [2] | Structure (SMILES) | reduction of tumor growth (CT-26 tumor cells) |
| --- | --- | --- | --- | --- |
| 5.70 to 6.30 | > 6.70 | > 6.70 | COc1cccc(-c2nccc3c(Nc4ccc(F)c(Cl)c4)c(N)oc23)c1 [Compound 90, N^3-(3-Chloro-4-fluorophenyl)-7-(3-methoxyphenyl)furo[2,3-c]pyridine-2,3-diamine] |  |
| 5.70 to 6.30 | 6.00 to 6.70 | > 6.70 | COc1cc2c(Nc3ccc(F)c(Cl)c3)c(N)oc2c(-c2ccc(F)cc2)n1 [Compound 174, N^3-(3-chloro-4-fluorophenyl)-7-(4-fluorophenyl)-5-methoxyfuro[2,3-c]pyridine-2,3-diamine] |  |
| 5.70 to 6.30 | > 6.70 | > 6.70 | CC(C)c1nccc2c(Nc3ccc(F)c(Cl)c3)c(N)oc12 [Compound 83, N^3-(3-Chloro-4-fluorophenyl)-7-isopropylfuro[2,3-c]pyridine-2,3-diamine] |  |
| > 6.30 | > 6.70 | > 6.70 | Nc1oc2c(F)nccc2c1Nc1ccc(F)c(Cl)c1 [Compound 176, N^3-(3-chloro-4-fluorophenyl)-7-fluorofuro[2,3-c]pyridine-2,3-diamine] |  |
| 5.70 to 6.30 | > 6.70 | > 6.70 | C#Cc1cc(Nc2c(N)oc3c(-c4ccccc4)nccc23)ccc1F [Compound 110, N^3-(3-Ethynyl-4-fluorophenyl)-7-phenylfuro[2,3-c]pyridine-2,3-diamine] |  |
| > 6.30 | > 6.70 | > 6.70 | N#Cc1ccc2c(Nc3cccc(Br)c3)c(N)oc2c1 [Compound 115, 2-Amino-3-((3-bromophenyl)amino)benzofuran-6-carbonitrile] |  |
| 5.70 to 6.30 | > 6.70 | > 6.70 | N#Cc1ccc2c(Nc3cccc(C(F)(F)F)c3)c(N)oc2c1 [Compound 113, 2-Amino-3-((3-(trifluoromethyl)phenyl)amino)benzofuran-6-carbonitrile] |  |
| < 5.70 | > 6.70 | > 6.70 | CCCNC(=O)c1cc(-c2nccc3c(Nc4ccc(F)c(Cl)c4)c(N)oc23)ccn1 [Compound 253, 4-(2-Amino-3-((3-chloro-4-fluorophenyl)amino)furo[2,3-c]pyridin-7-yl)-N-propylpicolinamide] |  |
| > 6.30 | > 6.70 | > 6.70 | Cc1cc(-c2nccc3c(Nc4cccc(F)c4)c(N)oc23)ccn1 [Compound 243, N^3-(3-Fluorophenyl)-7-(2-methylpyridin-4-yl)furo[2,3-c]pyridine-2,3-diamine] |  |
| 5.70 to 6.30 | > 6.70 | > 6.70 | Cc1cc(-c2nccc3c(Nc4ccccc4Cl)c(N)oc23)ccn1 [Compound 206, N^3-(2-chlorophenyl)-7-(2-methylpyridin-4-yl)furo[2,3-c]pyridine-2,3-diamine] |  |
| < 5.70 | > 6.70 | > 6.70 | Nc1oc2c(-c3ccnc(C(=O)Nc4ccccn4)c3)nccc2c1Nc1ccc(F)c(Cl)c1 [Compound 273, 4-(2-Amino-3-((3-chloro-4-fluorophenyl)amino)furo[2,3-c]pyridin-7-yl)-N-(pyridin-2-yl)picolinamide] |  |
| < 5.70 | > 6.70 | > 6.70 | CNC(=O)c1cc(-c2nccc3c(Nc4cccc(C(F)(F)F)c4)c(N)oc23)ccn1 [Compound 226, 4-(2-Amino-3-((3-(trifluoromethyl)phenyl)amino)furo[2,3-c]pyridin-7-yl)-N-methylpicolinamide] |  |
| > 6.30 | > 6.70 | > 6.70 | Nc1oc2cnc(F)cc2c1Nc1ccc(F)c(Cl)c1 [Compound 181, N^3-(3-Chloro-4-fluorophenyl)-5-fluorofuro[2,3-c]pyridine-2,3-diamine] |  |
| 5.70 to 6.30 | > 6.70 | > 6.70 | CNC(=O)c1cc(-c2nccc3c(Nc4ccc(F)c(Cl)c4)c(N)oc23)ccn1 [Compound 195, 4-(2-Amino-3-((3-chloro-4-fluorophenyl)amino)furo[2,3-c]pyridin-7-yl)-N-methylpicolinamide] |  |
| > 6.30 | > 6.70 | > 6.70 | Nc1sc2ccccc2c1Nc1ccc(F)c(Cl)c1 [Compound 117, N^3-(3-Chloro-4-fluorophenyl)benzo[b]thiophene-2,3-diamine] |  |
| > 6.30 | > 6.70 | > 6.70 | Nc1oc2c(-c3ccccc3)nccc2c1Nc1ccc(F)c(Cl)c1 [Compound 81, N^3-(3-Chloro-4-fluorophenyl)-7-phenylfuro[2,3-c]pyridine-2,3-diamine] |  |
| 5.70 to 6.30 | > 6.70 | > 6.70 | C#Cc1cc(Nc2c(N)oc3c(-c4ccncc4)nccc23)ccc1F [Compound 111, N^3-(3-Ethynyl-4-fluorophenyl)-7-(pyridin-4-yl)furo[2,3-c]pyridine-2,3-diamine] |  |
| 5.70 to 6.30 | > 6.70 | > 6.70 | Nc1oc2cnccc2c1Nc1cccc(C(F)(F)F)c1 [Compound 26, N^3-(3-(Trifluoromethyl)phenyl)furo[2,3-c]pyridine-2,3-diamine] |  |
| > 6.30 | > 6.70 | > 6.70 | Nc1oc2c(Cl)nccc2c1Nc1ccc(F)c(Cl)c1 [Compound 166, 7-Chloro-N3-(3-chloro-4-fluorophenyl)furo[2,3-c]pyridine-2,3-diamine] | 26%-38 |
| < 5.70 | > 6.70 | > 6.70 | Nc1oc2c(-c3ccc4ccccc4c3)nccc2c1Nc1ccc(F)c(Cl)c1 [Compound 247, N^3-(3-Chloro-4-fluorophenyl)-7-(naphthalen-2-yl)furo[2,3-c]pyridine-2,3-diamine] |  |

| Structure (SMILES) | pIC50 [1] | pIC50 (IDO1 in HeLa cells) | pIC50 [2] | reduction of tumor growth (CT-26 tumor cells) |
| --- | --- | --- | --- | --- |
| CC(F)(F)c1cc(Nc2c(N)oc3cnccc23)ccc1F [Compound 69, N^3-(3-(1,1-Difluoroethyl)-4-fluorophenyl)furo[2,3-c]pyridine-2,3-diamine] | < 5.70 | > 6.70 | 6.00 to 6.70 |  |
| Nc1sc2ccc(Cl)cc2c1Nc1cccc(C(F)(F)F)c1 [Compound 133, 5-Chloro-N^3-(3-(trifluoromethyl)phenyl)benzo[b]thiophene-2,3-diamine hydrochloride] | 5.70 to 6.30 | 6.00 to 6.70 | 6.00 to 6.70 |  |
| Cc1cccc(Nc2c(N)oc3cc(C#N)ccc23)c1 [Compound 114, 2-Amino-3-(m-tolylamino)benzofuran-6-carbonitrile] | < 5.70 | > 6.70 | 6.00 to 6.70 |  |
| CCc1cc2c(Nc3ccc(F)c(Cl)c3)c(N)oc2c(-c2ccccc2)n1 [Compound 109, N^3-(3-chloro-4-fluorophenyl)-5-ethyl-7-phenylfuro[2,3-c]pyridine-2,3-diamine] | < 5.70 | 6.00 to 6.70 | 6.00 to 6.70 |  |
| Nc1oc2c(-c3ccncc3)nccc2c1Nc1cc(F)cc(F)c1 [Compound 187, N^3-(3,5-Difluorophenyl)-7-(pyridin-4-yl)furo[2,3-c]pyridine-2,3-diamine] | > 6.30 | > 6.70 | 6.00 to 6.70 |  |
| Nc1oc2cnc(F)cc2c1Nc1ccccc1Cl [Compound 218, N^3-(2-Chlorophenyl)-5-fluorofuro[2,3-c]pyridine-2,3-diamine] | 5.70 to 6.30 | > 6.70 | 6.00 to 6.70 |  |
